Reference: patent publication US11439148B2, “Pyrimidine derivatives” (SYNGENTA PARTICIPATIONS AG, priority 2017, dated 2022)
“And” between values parts separate entries of the source, which are not always exact repeats. Equal values may be shown once.

Columns and labels:
Type in all cases: in vivo
[1] = test system: Abutilon theophrasti (ABUTH); assay: Adjuvant efficacy with fomesafen, glasshouse spray test; conditions: fomesafen sodium salt SL, mean over 100 and 200 g/ha and 3 replicates; adjuvant 0.2% v/v (none in No Adjuvant rows); % leaf area killed, 21 days after application; Tests 1-4 separate runs
Experimental: (§1) The efficacy of adjuvants 1-12 as adjuvants for the herbicide fomesafen (as the sodium salt) were tested in a glasshouse against four weed species, sown into standard soil in pots and cultivated under controlled conditions in a glasshouse (at 24/18° C. day/night; 16 hours light, 65% humidity). Fomesafen sodium salt was added to the spray tank as a standard SL (soluble concentrate) formulation.
(§2) The spray tests were also carried out using fomesafen in conjunction with adjuvants 1-12. Unless otherwise stated, the adjuvants were added to the spray solution at a rate of 0.2% v/v. All spray solutions also contained 12.5% v/v of iso-Propanol to normalise the retention of the sprays on the hydrophobic plant surfaces. The weed species and their BBCH growth stage at spraying were Abutilon theophrasti (ABUTH; growth stage 12-13), Chenopodium album (CHEAL; growth stage 15), Ipomea hederacea (IPOHE; growth stage 12), and Setaria viridis (SETVI; growth stage 14). Each spray test was replicated three times. The test plants were then grown in a glasshouse under controlled conditions (at 24/18° C. day/night; 16 hours light; 65% humidity) and watered twice a day.
(§3) The efficacy of the herbicide was assessed visually and expressed as a percentage of the leaf area killed. Samples were assessed at a time period of 21 days following application. The results shown in Table 2 below are mean averages over the two rates of fomesafen, the three replicates […].

[2] = test system: Chenopodium album (CHEAL); assay: as above; conditions: fomesafen sodium salt SL, mean over 100 and 200 g/ha and 3 replicates; adjuvant 0.2% v/v (none in No Adjuvant rows); % leaf area killed, 21 days after application; Tests 1-4 separate runs
Experimental: as §1, §2, §3

Ipomea hederacea (IPOHE) = assay: as above; conditions: fomesafen sodium salt SL, mean over 100 and 200 g/ha and 3 replicates; adjuvant 0.2% v/v (none in No Adjuvant rows); % leaf area killed, 21 days after application; Tests 1-4 separate runs
Experimental: as §1, §2, §3

Setaria viridis (SETVI) [3] = assay: as above; conditions: fomesafen sodium salt SL, mean over 100 and 200 g/ha and 3 replicates; adjuvant 0.2% v/v (none in No Adjuvant rows); % leaf area killed, 21 days after application; Tests 1-4 separate runs
Experimental: as §1, §2, §3

[4] = test system: Alopecurus myosuroides (ALOMY); assay: Adjuvant efficacy with pinoxaden, glasshouse spray test; conditions: pinoxaden EC, mean over 7.5 and 15 g/ha and 3 replicates; adjuvant 0.2% v/v (none in No Adjuvant rows); % leaf area killed, 21 days after application; Tests 1-4 separate runs
Experimental: as §1, with “pinoxaden” for “fomesafen (as the sodium salt)”, “20/16°” for “24/18°”, “light;” for “light,”, “Pinoxaden” for “Fomesafen sodium salt”, “EC (emulsifiable” for “SL (soluble”
(§4) The spray tests were also carried out using pinoxaden in conjunction with adjuvants 1-12. The adjuvants were added to the spray solution at a rate of 0.2% v/v unless otherwise stated. All spray solutions also contained 10% w/w of iso-Propanol. The weed species and their BBCH growth stage at spraying were Avena fatua (AVEFA; growth stage 12), Lolium perenne (LOLPE; growth stage 13), Alopecurus myosuroides (ALOMY; growth stage 13), and Setaria viridis (SETVI; growth stage 13-14). Each spray test was replicated three times. The test plants were then grown in a glasshouse under controlled conditions (at 20/16° C. day/night; 16 hours light; 65% humidity) and watered twice a day. The efficacy of the herbicide was assessed visually and expressed as a percentage of the leaf area killed. Samples were assessed at a time period of 21 days following application. The results shown in Table 4 below are mean averages over the two rates of pinoxaden, and the three replicates.

Avena fatua (AVEFA) = assay: as above; conditions: pinoxaden EC, mean over 7.5 and 15 g/ha and 3 replicates; adjuvant 0.2% v/v (none in No Adjuvant rows); % leaf area killed, 21 days after application; Tests 1-4 separate runs
Experimental: as §1, with “pinoxaden” for “fomesafen (as the sodium salt)”, “20/16°” for “24/18°”, “light;” for “light,”, “Pinoxaden” for “Fomesafen sodium salt”, “EC (emulsifiable” for “SL (soluble”
as §4

Lolium perenne (LOLPE) = assay: as above; conditions: pinoxaden EC, mean over 7.5 and 15 g/ha and 3 replicates; adjuvant 0.2% v/v (none in No Adjuvant rows); % leaf area killed, 21 days after application; Tests 1-4 separate runs
Experimental: as §1, with “pinoxaden” for “fomesafen (as the sodium salt)”, “20/16°” for “24/18°”, “light;” for “light,”, “Pinoxaden” for “Fomesafen sodium salt”, “EC (emulsifiable” for “SL (soluble”
as §4

Setaria viridis (SETVI) [5] = assay: as above; conditions: pinoxaden EC, mean over 7.5 and 15 g/ha and 3 replicates; adjuvant 0.2% v/v (none in No Adjuvant rows); % leaf area killed, 21 days after application; Tests 1-4 separate runs
Experimental: as §1, with “pinoxaden” for “fomesafen (as the sodium salt)”, “20/16°” for “24/18°”, “light;” for “light,”, “Pinoxaden” for “Fomesafen sodium salt”, “EC (emulsifiable” for “SL (soluble”
as §4

[6] = test system: Digitaria sanguinalis (DIGSA); assay: Adjuvant efficacy with mesotrione, glasshouse spray test; conditions: mesotrione SC, mean over 30 and 60 g/ha and 3 replicates; adjuvant 0.2% v/v (none in No Adjuvant rows); % leaf area killed, 21 days after application; Tests 1-4 separate runs
Experimental: (§5) The efficacy of adjuvants 1-12 as an adjuvant for the herbicide mesotrione was tested in a glasshouse against four weed species sown into standard soil in pots and cultivated under controlled conditions in a glasshouse (at 24/18° C. day/night; 16 hours light; 65% humidity). Mesotrione was added to the spray tank as a standard SC (suspension concentrate) formulation.
(§6) The spray tests were also carried out using mesotrione in conjunction with adjuvants 1-12. The adjuvants were added to the spray solution at a rate of 0.2% v/v unless otherwise stated. All spray solutions also contained 10% w/w of iso-Propanol. The weed species and their BBCH growth stage at spraying were Brachiaria platyphylla (BRAPP; growth stage 13-14) or Brachiaria plantaginea (BRAPL; growth stage 13-14), Commelina benghalensis (COMBE; growth stage 13), Digitaria sanguinalis (DIGSA; growth stage 14), and Polygonum convolvulus (POLCO; growth stage 13-14). Each spray test was replicated three times.
(§7) The test plants were then grown in a glasshouse under controlled conditions (at 24/18° C. day/night; 16 hours light; 65% humidity) and watered twice a day. The efficacy of the herbicide was assessed visually and expressed as a percentage of the leaf area killed. Samples were assessed at a time period of 21 days following application. The results shown in Table 3 below are mean averages over the two rates of mesotrione and the three replicates.

[7] = test system: Polygonum convolvulus (POLCO); assay: as above; conditions: mesotrione SC, mean over 30 and 60 g/ha and 3 replicates; adjuvant 0.2% v/v (none in No Adjuvant rows); % leaf area killed, 21 days after application; Tests 1-4 separate runs
Experimental: as §5, §6, §7

[8] = test system: four weed species (ABUTH, CHEAL, IPOHE, SETVI); assay: Adjuvant efficacy with fomesafen, glasshouse spray test, average over all species; conditions: fomesafen sodium salt SL, mean over 100 and 200 g/ha, adjuvant 0.2% v/v (none in No Adjuvant rows), 21 days, average of ABUTH
Experimental: as §1, §2, §3

Row | SMILES | Mean % Herbicidal Activity ABUTH [1] | Mean % Herbicidal Activity CHEAL [2] | Mean % Herbicidal Activity IPOHE (Ipomea hederacea (IPOHE)) | Mean % Herbicidal Activity SETVI (Setaria viridis (SETVI) [3]) | Mean % Herbicidal Activity ALOMY [4] | Mean % Herbicidal Activity AVEFA (Avena fatua (AVEFA)) | Mean % Herbicidal Activity LOLPE (Lolium perenne (LOLPE)) | Mean % Herbicidal Activity SETVI (Setaria viridis (SETVI) [5]) | Mean % Herbicidal Activity DIGSA [6] | Mean % Herbicidal Activity POLCO [7] | Mean % Herbicidal Activity Average over all Species [8]
1 | CCCCCCOc1cc(OCCOCCOC)ncn1 [Adjuvant 1] | 74% | 79% | 91% | 65% | 20% | 78% | 41% | 82% | 81% | 81% | 77%
2 | CCCCCCCCCCCCOc1cc(OCCOCCOCCOCCOCCOCCOCCOCCOCCOCCOC)ncn1 [Adjuvant 7] | 46% | 94% | 98% | 45% | 63% | 98% | 78% | 97% | 80% | 70% | 71%
3 | CCCCCCOc1cc(OCCOCCOCCOCCOCCOCCOCCOCCOCCOCCOCCOCCOCCOCCOCCOCCOCCOCCOCCOCCOC)ncn1 [Adjuvant 3] | 47% | 54% | 88% | 37% | 15% | 52% | 22% | 88% | 83% | 92% | 56%
4 | CCCCCCCCCCCCCCCCOc1cc(OCCOCCOCCOCCOCCOCCOCCOCCOCCOCCOC)ncn1 [Adjuvant 8] | 53% and 75% and 36% | 78% and 65% and 73% | 92% and 97% and 51% | 17% and 65% and 13% | 2% and 15% and 22% | 94% and 78% and 84% | 87% and 42% and 73% | 94% and 88% and 89% | 84% and 81% and 83% | 82% and 92% and 93% | 60% and 75% and 43%
5 | CCCCCCCCCCCCOc1cc(OCC(C)OCC(C)OCC(C)OC)ncn1 (stereo not shown) [Adjuvant 12] | 74% | 80% | 98% | 77% | 23% | 87% | 76% | 94% | 84% | 98% | 82%
